Paper PMC3433420 (PLoS ONE, 2012)
Like-named read-outs stand apart in the source and are kept apart here. Residues, ends and D or L forms follow the SMILES beside them.

What was measured:
SHC3 SH2 domain [1] = target: T1, SHC3 SH2 domain (Homo sapiens, UniProt Q92529); experiment: Surface plasmon resonance (Biacore 3000); type: binding; parameters: A randomly selected set of 12 recombinant SH2 domain proteins; thioredoxin; made in house; host or cells: E. coli BL21(DE3)pLysS; details: SPR, NA = no interaction detected
T1 sequence (Q92529 499-590 limits assumed): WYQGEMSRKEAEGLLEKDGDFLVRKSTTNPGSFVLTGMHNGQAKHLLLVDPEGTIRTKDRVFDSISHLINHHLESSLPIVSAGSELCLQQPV
Description: (§1) All SPR experiments were performed using Biacore 3000 (GE HealthCare, Piscataway, NJ) instrumentation. 6X His-tagged SH2 domain proteins were immobilized on a nitriloacetic acid (NTA) sensor chip (GE HealthCare, Piscataway, NJ) charged with Ni^2+ ions. Dye-free ErbB family peptides were applied to the sensor chip in a single flow cell in solution phase (while the other flow cell was used as a reference control) and binding events were measured under equilibrium conditions. FP false positive [drawing 7] (FPR), false discovery [drawing 8] (FDR), and false negative [drawing 9] (FNR) rates were calculated by defining true positives (TP) as interactions detected by both FP and SPR, true negatives (TN) as interactions detected by neither FP nor SPR; false positives as interactions identified by FP but not validated by SPR; and false negatives (FN) as interactions missed by FP but detected by SPR. Additional details for all methods are provided in the Supplementary Methods.
(§2) Fresh protein stocks were generated so as to avoid bias incurred from proteins previously used in the FP assays. […]

SHC3 SH2 domain [2] = target: T1, SHC3 SH2 domain; experiment: FP saturation binding assay
PIK3R3-C SH2 domain [3] = target: T2, PIK3R3-C SH2 domain (Homo sapiens, UniProt Q92569); experiment: Surface plasmon resonance (Biacore 3000); type: binding; details: SPR, NA = no interaction detected
T2 construct: thioredoxin; made in house; host or cells: E. coli BL21(DE3)pLysS
Description: as §1
A randomly selected set of 12 recombinant SH2 domain proteins and unlabeled (rhodamine dye free) peptides (9 ErbB, 2 GAB1, 2 KIT, 2 MET) were generated for the surface plasmon resonance (SPR) validation study. The 6X His-tagged SH2 domain proteins used in the assay, PLCG1-C, SHC4, VAV2, TNS3, PIK3R3-C, SYK-C, PIK3R1-N, SUPT6H, CRKL, TEC, SHB, and SHC3 were produced and purified as previously described (see “SH2 and PTB domain proteins” section and Jones et al., 2006). Fresh protein stocks were generated so as to avoid bias incurred from proteins previously used in the FP assays. 13-mer peptides corresponding to ErbB1 pY801, ErbB1 pY900, ErbB1 pY978, ErbB1 pY1069, ErbB2 pY685, ErbB pY803, ErbB3 pY912, ErbB4 pY833, ErbB4 pY906, GAB1 pY183, GAB1 pY472, KIT pY570, KIT pY936, MET pY1093 and MET pY1313, were synthesized successfully for the assay using previously described approaches (see “FP competitor peptide synthesis” section). For SPR detection via the Biacore 3000 (GE HealthCare, Piscataway, NJ), His-tagged SH2 domains were immobilized on Biacore NTA sensor chips (GE HealthCare, Piscataway, NJ) pre-charged with Ni^2+ ions in one flow cell while the second served as a negative control reference cell. Peptides were introduced in solution phase to both cells and relative response units (RUs) were recorded from output sensograms. Nine concentrations of peptide and a buffer control, in duplicate, were used to determine KDs using the equilibrium method (best-fit simultaneous modeling for peptide association and disassociation curves).

TNS3 SH2 domain = target: T3, TNS3 SH2 domain (Homo sapiens, UniProt Q68CZ2); experiment: FP saturation binding assay
T3 sequence (Q68CZ2 1172-1282 limits assumed): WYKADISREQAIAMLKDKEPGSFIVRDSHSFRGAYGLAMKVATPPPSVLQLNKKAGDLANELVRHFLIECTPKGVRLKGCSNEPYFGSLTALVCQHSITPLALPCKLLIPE

PIK3R3-C SH2 domain [4] = target: T2, PIK3R3-C SH2 domain; experiment: biochemical; type: binding; details: FP, PIK3R3-C; mean; NA = no interaction detected
GRB7 SH2 domain [5] = target: T4, GRB7 SH2 domain (Homo sapiens, UniProt Q14451); experiment: FP competition assay; type: binding; parameters: 6X His; thioredoxin; made in house; host or cells: E. coli BL21(DE3)pLysS; details: labeled peptide ErbB3pY1197, Fig. 3 graph C, read-out: Ki (obs)
T4 sequence (Q14451 431-527 limits assumed): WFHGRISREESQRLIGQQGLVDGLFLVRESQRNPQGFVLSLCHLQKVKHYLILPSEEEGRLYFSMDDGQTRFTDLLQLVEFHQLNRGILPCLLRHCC
Description: (§3) Unlabeled phosphopeptides were synthesized with some modifications to the previously described protocol. […] Unlabeled competitor peptides were prepared at 11 serial 1∶3 dilutions in assay buffer; one control with no unlabeled competitor peptides was also included with each experimental set. The fluorescent peptide, protein, and unlabeled peptide mixtures were allowed to incubate for a minimum of 20 minutes in 384-well plates and polarization signals were measured using the Analyst GT multimode reader as previously described above. Inhibition curves were constructed by four-parameter log-logistic regression using the “drc” package in R with the parameters for maximum and minimum fluorescence fixed according to Z’ factor positive and negative control values. IC50 values were estimated from these fits under a one-site competition binding model and Ki calculated according to the equation developed by.

RASA1-N SH2 domain [6] = target: T5, RASA1-N SH2 domain (Homo sapiens, UniProt P20936); experiment: FP competition assay; type: binding; parameters: 6X His; thioredoxin; made in house; host or cells: E. coli BL21(DE3)pLysS; details: RASA1N, Fig. 3 graph A, read-out: Ki (obs)
T5 sequence (P20936 181-272 limits assumed): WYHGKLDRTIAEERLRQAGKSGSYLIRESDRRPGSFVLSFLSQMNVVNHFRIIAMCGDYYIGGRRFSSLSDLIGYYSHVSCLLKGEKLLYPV
Description: as §3

GRB7 SH2 domain [7] = target: T4, GRB7 SH2 domain; experiment: FP saturation binding assay; details: read-out: Ki ( exp FP); competing peptide, GRB7; Ki expected from FP; NI = no interaction
RASA1-N SH2 domain [8] = target: T5, RASA1-N SH2 domain; experiment: FP saturation binding assay
SRC SH2 domain = target: T6, SRC SH2 domain (Homo sapiens, UniProt P12931); experiment: FP competition assay; type: binding; details: labeled peptide ErbB3pY1222, Fig. 3 graph B, read-out: Ki (obs)
T6 construct: between the c-Src SH2 domain and ErbB1 in our FP assay; 6X His; thioredoxin; made in house; host or cells: E. coli BL21(DE3)pLysS
T6 sequence (P12931 151-248 limits assumed): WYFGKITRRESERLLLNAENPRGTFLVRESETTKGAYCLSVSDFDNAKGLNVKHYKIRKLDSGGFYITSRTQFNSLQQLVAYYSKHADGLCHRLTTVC
Description: as §3

PIK3R1-N SH2 domain [9] = target: T7, PIK3R1-N SH2 domain (Homo sapiens, UniProt P27986); experiment: Surface plasmon resonance (Biacore 3000); type: binding; details: SPR, NA = no interaction detected
T7 construct: thioredoxin; made in house; host or cells: E. coli BL21(DE3)pLysS
T7 sequence (P27986 333-428 limits assumed): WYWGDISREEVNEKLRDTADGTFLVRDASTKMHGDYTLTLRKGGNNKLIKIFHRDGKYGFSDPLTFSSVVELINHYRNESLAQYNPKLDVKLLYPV
Description: as §1, §2

PIK3R1-N SH2 domain [10] = target: T7, PIK3R1-N SH2 domain; experiment: biochemical; type: binding; details: FP, PIK3R1-N; mean; NA = no interaction detected
SHC2-PTB domain = SHC2-PTB domain (Homo sapiens, UniProt P98077); experiment: FP saturation binding assay
Sequence of SHC2-PTB domain (P98077 147-329 limits assumed): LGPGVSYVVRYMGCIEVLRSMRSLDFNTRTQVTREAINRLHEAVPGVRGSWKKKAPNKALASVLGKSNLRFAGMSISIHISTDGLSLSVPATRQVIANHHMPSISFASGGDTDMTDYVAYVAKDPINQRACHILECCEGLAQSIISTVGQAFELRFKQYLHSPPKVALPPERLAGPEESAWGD

[11] = target: PIK3R2-NC tandem SH2 domains (Homo sapiens, UniProt O00459); experiment: FP saturation binding assay
Sequence of PIK3R2-NC tandem SH2 domains (O00459 330-716 limits assumed): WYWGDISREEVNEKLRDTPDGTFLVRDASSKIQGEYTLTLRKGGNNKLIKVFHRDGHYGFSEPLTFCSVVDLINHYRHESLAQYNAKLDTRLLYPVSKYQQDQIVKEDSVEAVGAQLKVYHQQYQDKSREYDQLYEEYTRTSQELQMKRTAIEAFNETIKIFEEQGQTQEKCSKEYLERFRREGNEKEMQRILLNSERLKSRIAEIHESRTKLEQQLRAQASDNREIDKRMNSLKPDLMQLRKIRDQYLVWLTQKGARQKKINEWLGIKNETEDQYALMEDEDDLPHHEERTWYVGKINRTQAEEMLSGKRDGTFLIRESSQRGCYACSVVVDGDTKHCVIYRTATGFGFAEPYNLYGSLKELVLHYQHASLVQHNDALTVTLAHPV

Q: For `CC[C@H](C)[C@H](NC(=O)[C@@H](NC(=O)[C@@H](NC(=O)CNC(=O)[C@H](Cc1ccc(OP(=O)(O)O)cc1)NC(=O)[C@H](CO)NC(=O)[C@H](Cc1c[nH]c2ccccc12)NC(=O)[C@@H](NC(=O)[C@@H](N)CC(=O)O)C(C)C)C(C)C)[C@@H](C)O)C(=O)N[C@@H](Cc1c[nH]c2ccccc12)C(=O)N[C@@H](CCC(=O)O)C(=O)N[C@@H](CC(C)C)C(=O)N[C@@H](CC(=O)O)C(=O)O` [ErbB4 906] (HELM PEPTIDE1{D.V.W.S.[O=C([C@H](Cc1ccc(OP(=O)(O)O)cc1)N[*:1])[*:2]].G.V.T.I.W.E.L.D}$$$$V2.0), which Kd (SHC3 SH2 domain [1]) is on record?
A: The Kd was 6710 nM.

Q: And the Kd (SHC3 SH2 domain [2])?
A: The Kd was 540 nM.

Q: And the Kd (PIK3R3-C SH2 domain [3])?
A: Its Kd is 566 nM.

Q: What about the Kd (TNS3 SH2 domain) of the same compound?
A: The Kd was 800 nM.

Q: And the Kd (PIK3R3-C SH2 domain [4])?
A: The Kd was 1840 nM.

Q: What does the source list for `CC(C)C[C@H](NC(=O)[C@H](Cc1ccc(OP(=O)(O)O)cc1)NC(=O)[C@H](CCC(=O)O)NC(=O)[C@@H]1CCCN1C(=O)[C@H](CC(N)=O)NC(=O)[C@@H](N)CCC(=O)O)C(=O)N[C@H](C(=O)N1CCC[C@H]1C(=O)N[C@@H](CCC(N)=O)C(=O)NCC(=O)NCC(=O)N[C@@H](C)C(=O)N[C@@H](CC(=O)O)C(=O)O)[C@@H](C)O` [ErbB2 pY1196]?
A: Ki (GRB7 SH2 domain [5]): 10900 nM; Ki (RASA1-N SH2 domain [6]; labeled peptide ErbB2pY1196): 2290 nM; Ki (RASA1-N SH2 domain [6]; labeled peptide ErbB3pY1307): 3540 nM; Ki (GRB7 SH2 domain [7]): > 20000 nM; Kd (RASA1-N SH2 domain [8]): 1860 nM

Q: How did the Ki (SRC SH2 domain) turn out when `CSCC[C@H](NC(=O)[C@H](Cc1ccc(O)cc1)NC(=O)[C@H](CCC(=O)O)NC(=O)[C@H](Cc1ccc(OP(=O)(O)O)cc1)NC(=O)CNC(=O)[C@H](CC(C)C)NC(=O)[C@H](CCC(=O)O)NC(=O)[C@@H](N)CCC(=O)O)C(=O)N[C@@H](CC(=O)O)C(=O)N[C@H](C(=O)NCC(=O)N[C@@H](CO)C(=O)N[C@@H](CC(=O)O)C(=O)O)C(C)C` [ErbB3 pY1222] (HELM PEPTIDE1{E.E.L.G.[O=C([C@H](Cc1ccc(OP(=O)(O)O)cc1)N[*:1])[*:2]].E.Y.M.D.V.G.S.D}$$$$V2.0) was run?
A: Its Ki is 2360 nM.

Q: How did the Kd (PIK3R3-C SH2 domain [3]) turn out when `CC[C@H](C)[C@H](NC(=O)[C@@H](N)CCCCN)C(=O)N[C@@H](CCCNC(=N)N)C(=O)N[C@@H](CCCCN)C(=O)N[C@@H](Cc1ccc(OP(=O)(O)O)cc1)C(=O)N[C@H](C(=O)N[C@@H](CCSC)C(=O)N[C@@H](CCCNC(=N)N)C(=O)N[C@@H](CCCNC(=N)N)C(=O)N[C@@H](CC(C)C)C(=O)N[C@@H](CC(C)C)C(=O)N[C@@H](CCC(N)=O)C(=O)N[C@@H](CC(=O)O)C(=O)O)[C@@H](C)O` [ErbB2 685] (HELM PEPTIDE1{K.I.R.K.[O=C([C@H](Cc1ccc(OP(=O)(O)O)cc1)N[*:1])[*:2]].T.M.R.R.L.L.Q.D}$$$$V2.0) was run?
A: The Kd was 1520 nM.

Q: And the Kd (PIK3R1-N SH2 domain [9])?
A: Its Kd is 13400 nM.

Q: What about the Kd (PIK3R1-N SH2 domain [10]) of the same compound?
A: Its Kd is 2510 nM.

Q: And the Kd (PIK3R3-C SH2 domain [4])?
A: The Kd was 4430 nM.

Q: For `CC(C)C[C@H](NC(=O)[C@H](CCC(=O)O)NC(=O)[C@H](Cc1c[nH]c2ccccc12)NC(=O)[C@@H](NC(=O)[C@@H](NC(=O)[C@@H](NC(=O)CNC(=O)[C@H](Cc1ccc(O)cc1)NC(=O)[C@H](CO)NC(=O)[C@H](Cc1c[nH]c2ccccc12)NC(=O)[C@@H](NC(=O)[C@@H](N)CC(=O)O)C(C)C)C(C)C)[C@@H](C)O)C(C)C)C(=O)N[C@@H](CC(=O)O)C(=O)O` [ErbB1 Y900 (non-phospho)], which Kd (SHC2-PTB domain) is on record?
A: Its Kd is 5420 nM.

Q: What about the Kd [11] of the same compound?
A: The Kd was 6930 nM.
